Results reported in US9770026B2, “Substituted pyrimidine compound and uses thereof” (Shenyang Sinochem Agrochemicals R&D Co., Ltd., priority 2012, dated 2017).

Experiments:
[1] = tested on: rice blast; test: microbe, parasite or virus in culture; format: cell-based; conditions: for inhibition at 25 ppm: read-out: inhibition rate against rice blast, 25 ppm, in vitro; for inhibition at 8.3 ppm: read-out: inhibition rate against rice blast, 8.3 ppm, in vitro
[2] = tested on: Green peach aphids (Myzus Persicae Sulzer); test: bioactivity test against green peach aphid, airbrush foliar spray; format: in vivo; conditions: death rate after 48 hrs
Summary of the method: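 Death rate was scored at 48 hrs, held at 25±1 C and 60±5% RH, following airbrush foliar spray (0.5 mL, 10 psi) onto cabbage leaf discs bearing about 15-30 aphids. Test solutions: compound dissolved in 1:1 acetone:methanol, brought to concentration with 0.1% tween 80 water.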

[3] = tested on: corn rust; test: protectant activity in vivo against corn rust; conditions: for pest or weed control at 100 ppm: read-out: protectant activity against corn rust in vivo, 100 ppm; for pest or weed control at 400 ppm: read-out: protectant activity against corn rust in vivo, 400 ppm
[4] = tested on: carmine spider mite; test: bioactivity test against carmine spider mite, airbrush spray; format: in vivo; conditions: mortality after 72 hrs; for pest or weed control at 100 ppm / pest or weed control at 600 ppm: Tetranychus cinnabarinus, 72 h
Summary of the method: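 Broadbean seedlings infested with adult mites were sprayed with compound (acetone/methanol stock diluted in 0.1% Tween 80 water) by airbrush at 0.7 kg/cm^2, 0.5 ml. Three replicates were run. Mortality was scored after 72 hrs.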

[5] = tested on: wheat powdery mildew; test: protectant activity in vivo against wheat powdery mildew; conditions: for pest or weed control at 400 ppm: Triticum aestivum, 168 h, read-out: protectant activity against wheat powdery mildew in vivo, 400 ppm
[6] = tested on: cucumber downy mildew; test: protectant activity in vivo against cucumber downy mildew; conditions: Cucumis sativus, 168 h; for pest or weed control at 400 ppm: read-out: protectant activity against cucumber downy mildew in vivo, 400 ppm
[7] = tested on: armyworm; test: bioactivity test against armyworm, airbrush spray; format: in vivo; conditions: mortality after 72 h
[8] = Myzus persicae, foliar, 48 h, 10 ppm
[9] = Myzus persicae, foliar, 48 h, 100 ppm
[10] = Myzus persicae, foliar, 48 h, 600 ppm

In the case of `FC(F)c1ncnc(NCCc2ccc(Oc3ccc(C(F)(F)F)cc3Cl)nc2)c1Cl` [III-661], the “inhibition rate against rice blast” value ([1]; 8.3 ppm, in vitro) is reported as 100%, the “control (test results against green peach aphid)” value ([2]; 100 ppm) is reported as 100% and the “control (test results against green peach aphid)” value ([2]; 600 ppm) is reported as 100%. For the same molecule, the “protectant activity against corn rust in vivo” value ([3]; 100 ppm) was 100% and the “protectant activity against corn rust in vivo” value ([3]; 400 ppm) was 100%.

For `CCc1nc(C)nc(NCCc2ccc(Oc3ccc(C(=O)OC)cn3)cc2)c1Cl` [Compound I-6797], the inhibition at 25 ppm ([1]; Pyricularia oryzae) was 80 to 99%, the pest or weed control at 10 ppm [2, 8] was 80 to 99% and the pest or weed control at 100 ppm [2, 9] was 100%. It also gave a pest or weed control at 600 ppm [2, 10] of 100%, a pest or weed control at 100 ppm ([4]; 100 ppm) of 100% and a pest or weed control at 600 ppm ([4]; 600 ppm) of 100%. For the same molecule, the pest or weed control at 400 ppm [5] was 80 to 99% and the pest or weed control at 400 ppm [6] was 80 to 99%.

Work on `CCOC(=O)c1ccc(Oc2ccc(CCNc3nc(C)nc(CC)c3Cl)cc2)nc1` [Compound I-6796] yielded an inhibition at 25 ppm ([1]; Pyricularia oryzae) of 80 to 99%, a pest or weed control at 10 ppm [2, 8] of 100% and a pest or weed control at 100 ppm [2, 9] of 100%. For the same molecule, the pest or weed control at 600 ppm [2, 10] was 100%, the pest or weed control at 600 ppm ([4]; 600 ppm) was 80 to 99% and the pest or weed control at 6.25 ppm ([3]; Zea mays, 168 h, read-out: protectant activity against corn rust in vivo, 6.25 ppm) was 80 to 99%. It also gave a pest or weed control at 25 ppm ([3]; Zea mays, 168 h, read-out: protectant activity against corn rust in vivo, 25 ppm) of 80 to 99%, a pest or weed control at 100 ppm ([3]; Zea mays, 168 h) of 100% and a pest or weed control at 400 ppm ([3]; Zea mays, 168 h) of 100%. The pest or weed control at 400 ppm [5] was 100%, the pest or weed control at 50 ppm ([6]; read-out: protectant activity against cucumber downy mildew in vivo, 50 ppm) was 80 to 99% and the pest or weed control at 100 ppm ([6]; read-out: protectant activity against cucumber downy mildew in vivo, 100 ppm) was 80 to 99%. It also gave a pest or weed control at 400 ppm [6] of 100%.

`CCc1c(Cl)c(NCCc2ccc(Oc3ccc(C(F)(F)F)cc3)cc2)nc[n+]1CC(=O)c1ccc(Cl)cc1` [CK50, reference compound] gave an inhibition at 8.3 ppm ([1]; Pyricularia oryzae) of 0%, an inhibition at 25 ppm ([1]; Pyricularia oryzae) of under 50% and a pest or weed control at 6.25 µg/mL ([3]; Zea mays, 168 h, read-out: control effect against corn rust (%), 6.25 mg/L, protectant activity) of 0%. The pest or weed control at 25 µg/mL ([3]; Zea mays, 168 h, read-out: control effect against corn rust (%), 25 mg/L, protectant activity) was 0%, the pest or weed control at 100 µg/mL ([3]; Zea mays, 168 h, read-out: control effect against corn rust (%), 100 mg/L, protectant activity) was 0% and the pest or weed control at 400 µg/mL ([3]; Zea mays, 168 h, read-out: control effect against corn rust (%), 400 mg/L, protectant activity) was 80%.

With `Cc1ncnc(NCCc2ccc(Oc3ccc(C(F)(F)F)cn3)cc2)c1Cl` [Compound I-6763] the inhibition at 25 ppm ([1]; Pyricularia oryzae) was 100%, the “control (test results against armyworm)” value ([7]; 600 ppm) was 100% and the pest or weed control at 100 ppm ([7]; 72 h, 100 ppm) was 100%. For the same molecule, the “control (test results against green peach aphid)” value ([2]; 10 ppm) was 100%, the “control (test results against green peach aphid)” value ([2]; 100 ppm) was 100% and the “control (test results against green peach aphid)” value ([2]; 600 ppm) was 100%. For the same molecule, the pest or weed control at 5 ppm ([2]; Myzus persicae, foliar, 48 h, 5 ppm) was 100%, the “control against carmine spider mite” value ([4]; 100 ppm) was 100% and the “control against carmine spider mite” value ([4]; 600 ppm) was 100%. The “protectant activity against corn rust in vivo” value ([3]; 100 ppm) was 100%, the “protectant activity against corn rust in vivo” value ([3]; 400 ppm) was 100% and the “protectant activity against wheat powdery mildew in vivo” value ([5]; 100 ppm) was 100%. For the same molecule, the “protectant activity against wheat powdery mildew in vivo” value ([5]; 400 ppm) was 100%.

With `Cc1ncnc(NCCc2ccc(Oc3c(Cl)cc([N+](=O)[O-])cc3Cl)cc2)c1Cl` [II-165] the inhibition at 0.1 ppm ([1]; Pyricularia oryzae, read-out: inhibition rate against rice blast, 0.1 ppm, in vitro) was 100%, the inhibition at 0.3 ppm ([1]; Pyricularia oryzae, read-out: inhibition rate against rice blast, 0.3 ppm, in vitro) was 100% and the inhibition at 0.9 ppm ([1]; Pyricularia oryzae, read-out: inhibition rate against rice blast, 0.9 ppm, in vitro) was 100%. The inhibition at 2.8 ppm ([1]; Pyricularia oryzae, read-out: inhibition rate against rice blast, 2.8 ppm, in vitro) was 100%, the inhibition at 8.3 ppm ([1]; Pyricularia oryzae) was 100% and the inhibition at 25 ppm ([1]; Pyricularia oryzae) was 100%. For the same molecule, the pest or weed control at 600 ppm ([4]; 600 ppm) was 80 to 99%, the pest or weed control at 100 ppm ([3]; Zea mays, 168 h) was 80 to 99% and the pest or weed control at 400 ppm ([3]; Zea mays, 168 h) was 100%.

`CCc1nc(C)nc(NCCc2ccc(Oc3ccc(C#N)cn3)cc2)c1Cl` [Compound I-6795] showed an inhibition at 25 ppm ([1]; Pyricularia oryzae) of 80 to 99%, a pest or weed control at 600 ppm [2, 10] of 100% and a pest or weed control at 100 ppm ([4]; 100 ppm) of 100%. For the same molecule, the pest or weed control at 600 ppm ([4]; 600 ppm) was 100%, the pest or weed control at 400 ppm ([3]; Zea mays, 168 h) was 100% and the pest or weed control at 400 ppm [5] was 100%.
